From patent US20260308158A1, “TARGETING RNAS ASSOCIATED WITH TAUOPATHIES WITH SMALL MOLECULES” (University of Florida Research Foundation, Incorporated, priority 2023, published 2026) come the findings set out here.

In experiment [1] the test system is 4R and 3R tau protein in LAN5 cells. Briefly: 4R/3R tau protein by Western blotting in LAN5 cells. Particulars: LA-N-5; 2 at 1.5 μM, LAN5, 48 h; read-out: reduction of 4R/3R protein ratio. Type of experiment: cell-based. The procedure:
Western Blotting. LAN5 cells were seeded in 6-well plates at 0.6×10^6 cells per well, treated with compound and incubated for 48 h. After removing the growth medium, the cells were washed with 1×DPBS and harvested by trypsinization. Total protein was extracted with Mammalian Protein Extraction Reagent (M-PER, Thermo Scientific) per the manufacturer's protocol. Protein concentrations were determined using a Pierce Micro BCA Protein Assay Kit per the manufacturer's recommended protocol. Approximately 20 μg of total protein from each biological sample was separated on a sodium dodecyl sulfate (SDS)-polyacrylamide gel (5% (w/v) polyacrylamide stacking layer; 12% (w/v) polyacrylamide separating layer), followed by transferring to a polyvinylidene fluoride (PVDF; 0.45 μm) membrane. […] After three more washes with 1×TBST for 15 min each, 4R, 3R tau protein, or B-actin were detected using SuperSignal West Pico Chemiluminescent Substrate (Pierce Biotechnology).
After imaging, the membrane was stripped with 1× Stripping Buffer (200 mM glycine with 0.1% SDS, pH 2.2) for 0.5 h at room temperature, and β-actin levels were detected as described above, except using a β-actin primary antibody (Cell Signaling Technology, 4970S; 1:5000 dilution). ImageJ software was used for the quantification of the protein bands.

For experiment [2], the system named is DDPAC MAPT mini-gene pre-mRNA. Briefly: Chem-CLIP / C-Chem-CLIP in HeLa cells transfected with DDPAC mini-gene. Type of experiment: cell-based. Particulars: HeLa, DDPAC mini-gene. On the procedure: Measuring Cellular Occupancy by Chem-CLIP and C-Chem-CLIP. LAN5 cells were grown to ~80% confluency in 100 mm diameter dishes. HeLa cells were transfected as described in the Luciferase Reporter Assay to Study Exon 10 Alternative Splicing except they were re-plated in 100 mm diameter dishes and grown to ~80% confluency (~1 day). The cells were then treated with 1.5 μM of 3 or 4 for 12 h. For C-Chem-CLIP, dilutions of competing compounds 1 or 2 were pre-incubated with cells for 12 h prior to adding 3. After addition of 3, the cells were incubated for an additional 12 h. After the treatment period, whether for Chem-CLIP or C-Chem-CLIP studies, the cells were washed with 10 mL of 1×DPBS. Ice-cold 1×DPBS (10 mL) was then added to the plate followed by irradiation with 365 nm light in a UV Stratalinker 2400 (Stratagene). Cells were scraped with a cell scraper, transferred to a 15 mL conical vial, and collected by centrifugation. Total RNA was extracted using TRIzol LS Reagent (Invitrogen) per the manufacturer's protocol. […]
RT-qPCR was performed on RNA samples before and after pull-down as described in Real-Time Quantitative PCR to enable calculation of fold enrichment in the pulled down samples. Relative fold enrichment of tau pre-mRNA was measured using Equation 3: […]

A further experiment concerns the target DDPAC MAPT SRE RNA. The experiment in a line: Fluorescent binding affinity, DDPAC SRE RNA. To be noted: inherent fluorescence, n=3. On the procedure:
Fluorescent Binding Affinity Measurements. Binding assays were completed as previously described.^30 Briefly, the RNA of interest was folded in 1× Assay Buffer-1 (AB1: 8 mM Na2HPO4, pH 7.0, 185 mM NaCl, and 1 mM EDTA) by heating at 95° C. for 30 s followed by slowly cooling to room temperature. Bovine serum albumin (BSA) was then added to a final concentration of 40 μg/mL to afford 1× Assay Buffer-2 (AB2: 8 mM Na2HPO4, pH 7.0, 185 mM NaCl, 1 mM EDTA, and 40 μg/mL BSA). The RNA solution was serial diluted with 1×AB2. Then, compound of interest was added to the RNA solutions to a final concentration of 0.5 μM. […] Fluorescence intensity was measured using a Tecan Plate Reader (Gain: 100, Integration time: 40 μs). […] The change in fluorescence of the small molecule was calculated by its comparison to samples lacking RNA. Binding affinity was calculated using Equation 1, as previously described:^30
where I and I0 are the measured fluorescence intensity of the compound with or without RNA, respectively, Δε is the difference between the fluorescence intensity with the infinite concentration of RNA and the fluorescence intensity without RNA, [SM]0 and [RNA]0 are the concentrations of the small molecule (SM) and RNA, respectively, and Kd is the dissociation constant.

As for `COc1cc(N)ncc1CCCN(C)CCCn1cnc2c3ccccc3n(C)c2c1=O` [Compound 2, 3-(3-((3-(6-amino-4-methoxypyridin-3-yl)propyl)(methyl)amino)propyl)-5-methyl-3,5-dihydro-4H-pyrimido[5,4-b]indol-4-one], the inhibition at 1.5 µM in experiment [1] is 54 ± 9%. In addition, the “competition of the interaction of 3 with reporter” value in experiment [2] is “competed dose dependently”. Also, on DDPAC MAPT SRE RNA, the Kd was found to be 580 ± 100 nM.
